A short description of the data set: Agilent ZORBAX 300 SB-C18, 150 × 1 mm, 3.5 µm; A: water + 0.01% heptafluorobutyric acid; B: acetonitrile + 0.01% heptafluorobutyric acid; gradient (min/%B) 0/0 100/90. The note with it: stereoisomer not certain.
With `S=C(Nc1cccnc1)N1CCc2ccccc21`, the LC retention time came to 9.72 min.
Regarding `c1ccc2nc3c(nc2c1)[nH]c1ccccc13`, the LC retention time came to 12 min.
For `Nc1ccc(NC(=O)Nc2ccc(N)cc2)cc1`, the LC retention time amounted to 7.24 min.
Under `NCCCCCCO` stands 6.25 min; under `CCCCN1CCCC1`, 7.55 min.
For the compound `CCn1c(C)n[nH]c1=S`, the LC retention time was determined as 6.98 min.
With `CC(=O)c1ccc2c(c1)n(C)c(=O)n2C`, the LC retention time was 9 min.
The figure for `COC(=O)c1ccc(C(=O)OC)c(NC(=O)CC(c2ccccc2)c2ccccc2)c1` is 18 min; for `Cc1cc(N)c2c(c1)CCC(=O)N2` it is 8.69 min.
`CC(=O)Nc1cccc2ncccc12`: the LC retention time stood at 6.92 min.
Under `O=C(CCN1C(=O)c2ccccc2C1=O)NCc1ccco1` stands 10.2 min.
The figure for `Cc1cccc2c(=O)cc(-c3ccccc3)oc12` is 15.4 min.
As for `CC(C(=O)O)n1cccc1` (stereo not given), the LC retention time is 8.41 min.
The figure for `Cc1ccc(C(=O)NC(=Cc2ccc(C(C)C)cc2)C(=O)NCc2cccnc2)cc1` is 11.9 min; for `Cc1[nH][nH]c(=O)c1CCC(=O)NN=Cc1c(C)[nH]c2ccccc12` it is 8.93 min.
Consider `COc1cccc(OC)c1C(=O)C=Cc1ccccc1`, for which the LC retention time came to 14.7 min.
With `CNc1ccccc1C`, the LC retention time came to 8.19 min.
`CC1CC(C)(C)Nc2ccc(O)cc21` (stereo not given): the LC retention time turned out to be 8.04 min.
Under `CCOc1ccc(C=CC(=O)c2ccc(C)cc2)cc1` stands 17.8 min; under `S=C1N=C2CCCC2C2(CCCC2)N1` (stereo not given), 8.95 min; under `NC(=O)c1ccc[n+](C2OC(COP(=O)(O)O)C(O)C2O)c1` (stereo not given), 1.78 min.
Under `Cn1c(=O)cc(O)c2ccccc21` stands 9.12 min; under `CCCc1ccccc1N`, 9.54 min.
On to `CC1(C)CC(=O)C2=C(C1)NCN(Cc1ccccc1)C2`, for which the LC retention time turned out to be 8.44 min.
Under `CN(C)CCN(C)CCN(C)C` stands 6.9 min; under `COc1ccccc1-n1c(=O)[nH][nH]c1=O`, 6.75 min.
`CC(=O)OC1(C(C)=O)CCC2C3CC(C)C4=CC(=O)CCC4(C)C3CCC21C` (stereo not given): the LC retention time is 17 min.
As to `C=CCC1(C(C)C)C(=O)NC(=O)NC1=O`, the LC retention time stood at 9.74 min.
For the compound `CN1CCn2c1nc(N1CCOCC1)nc2=O`, the LC retention time is 7.25 min.
Turning to `CCCCOc1cc(C(=O)NCCN(CC)CC)c2ccccc2n1`, the LC retention time amounted to 11.8 min.
Take `CC(=O)Nc1ccc(C(=O)NCc2ccccn2)cc1`: the LC retention time was 7.41 min.
With `CCCNCCN`, the LC retention time came to 7 min.
The figure for `S=c1nc(C2CCCCC2)[nH][nH]1` is 8.76 min.
Turning to `c1coc(CN2CCNCC2)c1`, the LC retention time was found to be 7.3 min.
Take `O=C(O)C1CCCc2c1[nH]c1ccccc21` (stereo not given): the LC retention time worked out at 12.3 min.
On to `COc1ccc(-c2cc(=O)c3c(ccc4ccccc43)o2)cc1`, for which the LC retention time came out at 17 min.
`CNCCOC`: the LC retention time was determined as 4.63 min.
Under `CCCCCCCCCN` stands 11 min; under `Cc1cn(COCc2ccccc2)c(=O)[nH]c1=O`, 9.82 min.
Under `CN(C)CCCNCc1ccc2[nH]c3c(c2c1)CCCC3` stands 8.71 min; under `Cc1cc(C)c2c(=O)n(CC(=O)NCCC(C)C)c(=O)n(-c3ccccc3)c2n1`, 14.4 min; under `NC(=O)c1ccccc1NC(=O)Cn1cnc2ccccc2c1=O`, 9.05 min.
Regarding `CC(C)(C)c1ccc(-c2nc(NCc3cccnc3)c3ccccc3n2)cc1`, the LC retention time was determined as 10.9 min.
Under `Cc1nc2ccc(NC(=S)N(C)C)cc2nc1C` stands 8.82 min; under `CCC1(c2ccccc2)CCC(=O)NC1=O` (stereo not given), 11.5 min.
